ChEMBL document CHEMBL1132541, “New quaternary ammonium oxicam derivatives targeted toward cartilage: synthesis, pharmacokinetic studies, and antiinflammatory potency” (J Med Chem, 1999)

System: Rattus norvegicus
Assay: Maximal blood concentration after oral administration of a 30 umol/kg dose of compound
Type: ADME, organism-based
Set-up: dose 30 umol/kg, route oral
Details: in vivo

| Cmax | SMILES |
| --- | --- |
| 5.5 nmol/g | CN1C(C(=O)Nc2cccc[n+]2C)=C(O)c2ccccc2S1(=O)=O.[I-] |
| 47.8 nmol/g | CN1C(C(=O)Nc2ccccn2)=C(O)c2ccccc2S1(=O)=O [PIROXICAM] |
